{"source": "patent US11673898B2", "about": "“Substituted inhibitors of menin-MLL and methods of use” (Kura Oncology, Inc., priority 2016, dated 2023)", "key": {"[1]": {"tested_on": "MLL-AF9 BMC", "test": "Cell proliferation assay (CellTiter-Glo)", "type": "cell-based", "experimental": "Example 9: Cell proliferation assay. The ability of a compound of the present disclosure to inhibit the growth of cells, such as human leukemia cell, acute myeloid leukemia cell, cells with an MLL fusion, control cells without an MLL fusion, VCaP, LNCaP, 22RV1, DU145, LNCaP-AR, MV4; 11, KOPN-8, ML-2, MOLM-13, RS4; 11, SEM, bone marrow cells (BMCs), MLL-AF9, MLL-AF4, MLL-ENL, MLL-CBP, MLL-GAS7, MLL-AF1p, MLL-AF6, HM-2, E2A-HLF, REH, U937, K562, KG-1, HL-60 and NB4 cells, is tested using a cell viability assay, such as the Promega CellTiter-Glo® Luminescent Cell Viability Assay (Promega Technical Bulletin, 2015, “CellTiter-Glo® Luminescent Cell Viability Assay”: 1-15, herein incorporated by reference in its entirety). Cells are plated at relevant concentrations, for example about 1×10^5-2×10^5 cells per well in a 96-well plate. A compound of the present disclosure is added at a concentration up to about 2 μM with eight, 2-fold serial dilutions for each compound. Cells are incubated at 37° C. for a period of time, for example, 72 hours, then cells in the control wells are counted. Media is changed to restore viable cell numbers to the original concentration, and compounds are re-supplied. Proliferation is measured about 72 hours later using Promega CellTiter-Glo® reagents, as per kit instructions."}, "[2]": {"tested_on": "MV4; 11-luc tumors", "test": "Efficacy study in xenotransplantation mouse model of MLL leukemia (luminescence)", "type": "in vivo", "settings": "NSG mice, 120 mg/kg b.i.d. oral gavage, 6 days of treatment", "experimental": "Example 20: Efficacy study in xenotransplantation mouse model ofMLL leukemia. […] Luciferase expressing human MV4; 11 leukemia cells (MV4; 11-luc) were engrafted intravenously via tail vein injection (1×10^7 cells/animal) When the mean luminescence of the cells reached approximately 1.5×10^6, the tumor-bearing mice were randomly assigned to a vehicle control or a compound treatment group (5 animals per group). Animals in each of the treatment groups were administered a different compound of the present disclosure by oral gavage (120 mg/kg b.i.d, 150 mg/kg b.i.d., 200 mg/kg b.i.d., or 200 mg/kg q.d.). Body weight was measured daily, while mean luminescence was measured 6 days after initiating the treatment with compound or vehicle."}, "[3]": {"target": "T1, Menin MLL 4-43 (Homo sapiens, UniProt O00255)", "T1 sequence (O00255 1-610)": "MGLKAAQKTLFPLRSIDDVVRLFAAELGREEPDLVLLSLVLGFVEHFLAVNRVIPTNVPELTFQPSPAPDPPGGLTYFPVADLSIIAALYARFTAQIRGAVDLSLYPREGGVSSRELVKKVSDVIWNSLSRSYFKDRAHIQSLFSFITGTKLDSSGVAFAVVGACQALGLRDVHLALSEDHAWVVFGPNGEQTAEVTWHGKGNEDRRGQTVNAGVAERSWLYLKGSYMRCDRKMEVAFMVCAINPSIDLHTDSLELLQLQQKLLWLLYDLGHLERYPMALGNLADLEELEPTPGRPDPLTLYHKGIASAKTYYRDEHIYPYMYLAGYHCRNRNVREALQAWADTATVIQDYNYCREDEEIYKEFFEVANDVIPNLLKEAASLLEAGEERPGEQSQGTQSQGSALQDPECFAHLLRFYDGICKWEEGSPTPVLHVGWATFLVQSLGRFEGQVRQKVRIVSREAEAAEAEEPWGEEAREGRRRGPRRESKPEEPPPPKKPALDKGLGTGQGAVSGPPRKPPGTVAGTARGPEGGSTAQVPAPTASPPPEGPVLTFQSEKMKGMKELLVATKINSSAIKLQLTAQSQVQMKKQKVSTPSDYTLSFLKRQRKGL", "test": "Fluorescence polarization (FP) competition assay of the menin-MLL interaction", "type": "binding"}, "[4]": {"tested_on": "MOLM13 cells", "test": "Survival study in xenotransplantation MOLM13 xenograft model", "type": "in vivo, mouse", "experimental": "For survival studies in the xenotransplantation MOLM13 xenograft model, 6 to 8-week old female NSG mice were intravenously injected with 0.5×10^6 MOLM13 cells harboring […] translocation. At day 4 after transplantation, treatment was initiated with Compound C, 75 mg/kg, b.i.d., p.o. or vehicle (20% 2-hydroxypropyl-b-cyclodextrin with 5% cremophore) and was continued for 16 consecutive days in the compound treated mice or until terminal leukemia developed in the vehicle-treated mice.\nSimilarly, a 120 mg/kg b.i.d. treatment regimen of Compound D was initiated on day 6 after MOLM13 transplantation and continued for 16 consecutive days in the compound treated mice or until terminal leukemia developed in the vehicle-treated mice."}, "[5]": {"tested_on": "KOPN8 (MLL-ENL AML) cells", "test": "MTT cell proliferation assay", "type": "cell-based", "experimental": "(§1) Example 18: Cell proliferation assays. The ability of a compound of the present disclosure to inhibit the growth of cells was tested in both MLL leukemia cell lines (e.g., MV4; 11, MOLM13 and/or KOPN8) and control cell lines (e.g., K562, REH, U937, KG-1, and/or HL-60) using the MTT cell proliferation assay (ATCC® 30-1010K). […] Cells were plated at about 1×10^5 cells per well in a 96-well plate. A compound of the present disclosure was added at a concentration up to about 2 μM with seven, 2-fold serial dilutions for each compound. Cells were incubated at 37° C. for 72 hours, then cells in the control wells were counted. Media was changed to restore viable cell numbers to the original concentration, and compounds were re-supplied. Proliferation was measured 96 hours later using MTT reagents, as per kit instructions. […] The GIso value of a compound of the present disclosure, such as Compound D of FIG. 11, was 10 nM in MV4; 11 cells (MLL-AF4 AML), 17 nM in MOLM13 cells (MLL-AF9 AML), 18 nM in KOPN8 (MLL-ENL AML) cells, greater than 2000 nM in HL-60 cells, and greater than 2000 nM in U937 cells. REH, K562, KG-1, and U937 cells are control cell lines without MLL fusions."}, "[6]": {"tested_on": "MOLM13 cells (MLL-AF9 AML)", "test": "MTT cell proliferation assay", "type": "cell-based", "experimental": "as §1"}, "[7]": {"tested_on": "MLL fusion protein target genes HOXA9, DLX2, MEIS1 and differentiation marker CD11B", "test": "qRT-PCR gene expression in bone marrow samples of treated xenotransplantation mice", "type": "in vivo, mouse", "settings": "Day 7 of treatment, qRT-PCR normalized to GAPDH", "experimental": "Animals were sacrificed on Day 7 of treatment and bone marrow samples collected and prepared for gene expression analysis. Expression levels of MLL fusion protein target genes HOXA9, DLX2, and/or MEIS1 were measured by qRT-PCR and are presented in FIG. 6, FIG. 9 and FIG. 12 as fold changes normalized to GAPDH expression."}, "[8]": {"tested_on": "HL-60 cells", "test": "MTT cell proliferation assay, control cell line", "type": "cell-based", "settings": "HL-60 cells (control)", "experimental": "as §1"}, "[9]": {"tested_on": "U937 cells", "test": "MTT cell proliferation assay, control cell line", "type": "cell-based", "experimental": "as §1"}, "[10]": {"tested_on": "MV4; 11 cells (MLL-AF4 AML)", "test": "MTT cell proliferation assay", "type": "cell-based, human", "experimental": "as §1"}}, "note": "Where two headings read alike, the source gives them in different places."}
{"smiles": "Cc1nc(NC2CCN(Cc3ccc4c(cc(C#N)n4C[C@H](C)N4CCC(S(C)(=O)=O)CC4)c3C)CC2)c2cc(CC(F)(F)F)sc2n1", "note": "[Compound 165]", "values": [{"measurement": "GI50", "setting": "[1]", "value": "< 10", "unit": "nM"}, {"measurement": "Tumor growth (luminescence) relative to vehicle control", "setting": "[2]", "value": "inhibited tumor growth and induced tumor regression"}, {"measurement": "IC50", "setting": "[3]; fluorescence polarization assay, read-out: Menin MLL 4-43 IC50", "value": "< 50", "unit": "nM"}, {"measurement": "IC50", "setting": "[3]; read-out: IC50 value (ability to disrupt the menin-MLL interaction, per Example 6)", "value": "< 50", "unit": "nM"}]}
{"smiles": "Cc1nc(NC2CCN(Cc3ccc4c(cc(C#N)n4C[C@H](C)N4CCC(S(C)(=O)=O)CC4)c3C)CC2)c2cc(CC(F)(F)F)sc2n1", "note": "[Compound D]", "values": [{"measurement": "Median survival time", "setting": "[4]; NSG mice, 120 mg/kg b.i.d., 16 consecutive days from day 6 after MOLM13 transplantation", "value": 24, "unit": "days"}, {"measurement": "Survival benefit", "setting": "[4]; versus vehicle control group", "value": 75, "unit": "%"}, {"measurement": "Survival benefit", "setting": "[4]; versus vehicle control group (16 days)", "value": 18, "unit": "days"}, {"measurement": "GI50", "setting": "[5]", "value": 18, "unit": "nM"}, {"measurement": "GI50", "setting": "[6]", "value": 17, "unit": "nM"}, {"measurement": "Expression level of HOXA9", "setting": "[7]", "value": "substantially reduced"}, {"measurement": "Expression level of MEIS1", "setting": "[7]", "value": "substantially reduced"}, {"measurement": "Expression of differentiation marker CD1 lb", "setting": "[7]", "value": "elevated"}, {"measurement": "GI50", "setting": "[8]", "value": "> 2000", "unit": "nM"}, {"measurement": "GI50", "setting": "[9]", "value": "> 2000", "unit": "nM"}, {"measurement": "GI50", "setting": "[10]", "value": 10, "unit": "nM"}]}
